What was measured:
[1] = target: Estrogen receptor beta (Homo sapiens, UniProt Q92731); assay: Displacement of radioligand from human Estrogen receptor beta, percent inhibition at 10 uM
[2] = target: T1, Estrogen receptor (Homo sapiens) (UniProt P03372); assay: Displacement of radioligand from human Estrogen receptor alpha, percent inhibition at 10 uM
T1 sequence (whole entry): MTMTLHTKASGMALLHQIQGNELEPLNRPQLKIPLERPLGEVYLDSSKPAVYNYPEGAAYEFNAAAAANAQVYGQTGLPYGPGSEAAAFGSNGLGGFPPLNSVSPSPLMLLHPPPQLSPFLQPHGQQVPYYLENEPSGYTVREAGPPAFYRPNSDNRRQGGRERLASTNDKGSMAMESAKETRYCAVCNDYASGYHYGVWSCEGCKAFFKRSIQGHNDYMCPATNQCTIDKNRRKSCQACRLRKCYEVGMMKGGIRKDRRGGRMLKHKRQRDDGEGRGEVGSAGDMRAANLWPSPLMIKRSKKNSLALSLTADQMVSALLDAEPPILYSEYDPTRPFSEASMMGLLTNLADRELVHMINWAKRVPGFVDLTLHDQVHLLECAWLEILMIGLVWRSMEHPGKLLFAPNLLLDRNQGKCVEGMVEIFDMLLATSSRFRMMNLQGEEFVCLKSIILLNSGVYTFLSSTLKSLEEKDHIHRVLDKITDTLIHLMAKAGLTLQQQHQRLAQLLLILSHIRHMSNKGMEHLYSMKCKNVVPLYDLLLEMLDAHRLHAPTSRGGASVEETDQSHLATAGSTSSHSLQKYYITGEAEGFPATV

[3] = target: T2, Glucocorticoid receptor (Homo sapiens) (UniProt P04150)
T2 sequence (whole entry): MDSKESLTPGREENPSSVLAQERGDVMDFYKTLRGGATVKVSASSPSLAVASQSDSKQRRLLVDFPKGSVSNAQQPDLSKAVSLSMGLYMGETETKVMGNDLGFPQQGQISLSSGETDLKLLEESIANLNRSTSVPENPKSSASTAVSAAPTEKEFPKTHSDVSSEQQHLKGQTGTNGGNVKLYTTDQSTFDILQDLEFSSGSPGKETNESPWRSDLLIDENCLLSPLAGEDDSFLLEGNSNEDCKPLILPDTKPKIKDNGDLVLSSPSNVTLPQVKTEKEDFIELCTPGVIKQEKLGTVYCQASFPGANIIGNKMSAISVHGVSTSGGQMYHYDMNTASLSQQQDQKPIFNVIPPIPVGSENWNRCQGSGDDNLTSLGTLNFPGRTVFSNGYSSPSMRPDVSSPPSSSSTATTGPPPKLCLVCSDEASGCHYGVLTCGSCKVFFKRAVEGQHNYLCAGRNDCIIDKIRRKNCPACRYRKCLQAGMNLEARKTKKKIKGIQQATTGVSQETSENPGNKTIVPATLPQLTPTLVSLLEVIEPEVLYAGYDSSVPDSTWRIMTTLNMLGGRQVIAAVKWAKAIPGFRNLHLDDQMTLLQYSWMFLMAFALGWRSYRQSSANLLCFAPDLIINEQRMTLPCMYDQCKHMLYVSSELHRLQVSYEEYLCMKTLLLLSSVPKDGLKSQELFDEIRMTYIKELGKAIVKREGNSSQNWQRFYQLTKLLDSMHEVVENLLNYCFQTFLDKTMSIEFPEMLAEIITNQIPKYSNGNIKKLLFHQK
Description: Antagonist activity as displacement of 10 nM [3H]dexamethasone from human Glucocorticoid receptor

[4] = target: T3, Mineralocorticoid receptor (Homo sapiens) (UniProt P08235)
T3 sequence (whole entry): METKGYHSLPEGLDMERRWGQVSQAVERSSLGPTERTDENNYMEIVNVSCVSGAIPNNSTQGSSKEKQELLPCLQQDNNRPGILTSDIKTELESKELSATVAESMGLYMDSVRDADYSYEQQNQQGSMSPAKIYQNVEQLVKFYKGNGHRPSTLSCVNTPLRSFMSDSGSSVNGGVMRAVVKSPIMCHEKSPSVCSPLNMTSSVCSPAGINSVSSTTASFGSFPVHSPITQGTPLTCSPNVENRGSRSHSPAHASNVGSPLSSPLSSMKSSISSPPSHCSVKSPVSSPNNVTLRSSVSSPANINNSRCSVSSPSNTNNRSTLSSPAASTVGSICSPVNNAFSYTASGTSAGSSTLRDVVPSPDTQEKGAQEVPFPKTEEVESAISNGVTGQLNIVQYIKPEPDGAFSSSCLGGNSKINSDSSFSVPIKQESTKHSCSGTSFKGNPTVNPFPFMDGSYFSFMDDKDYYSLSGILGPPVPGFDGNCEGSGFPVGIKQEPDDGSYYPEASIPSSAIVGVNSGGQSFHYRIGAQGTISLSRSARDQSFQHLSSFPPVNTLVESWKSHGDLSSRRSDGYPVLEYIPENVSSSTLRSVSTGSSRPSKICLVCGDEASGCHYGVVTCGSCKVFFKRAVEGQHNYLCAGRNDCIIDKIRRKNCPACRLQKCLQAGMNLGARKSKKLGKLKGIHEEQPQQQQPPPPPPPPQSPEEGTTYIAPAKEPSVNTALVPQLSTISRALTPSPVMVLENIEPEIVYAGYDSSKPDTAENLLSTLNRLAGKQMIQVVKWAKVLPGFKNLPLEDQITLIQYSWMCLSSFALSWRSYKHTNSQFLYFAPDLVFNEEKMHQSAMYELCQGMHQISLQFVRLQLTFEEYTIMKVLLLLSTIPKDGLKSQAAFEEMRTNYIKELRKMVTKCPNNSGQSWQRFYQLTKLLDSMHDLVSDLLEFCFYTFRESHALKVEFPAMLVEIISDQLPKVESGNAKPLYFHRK
Description: Antagonist activity against human mineralocorticoid receptor as displacement of radioligand

Sequence of Estrogen receptor beta (Q92731 whole entry): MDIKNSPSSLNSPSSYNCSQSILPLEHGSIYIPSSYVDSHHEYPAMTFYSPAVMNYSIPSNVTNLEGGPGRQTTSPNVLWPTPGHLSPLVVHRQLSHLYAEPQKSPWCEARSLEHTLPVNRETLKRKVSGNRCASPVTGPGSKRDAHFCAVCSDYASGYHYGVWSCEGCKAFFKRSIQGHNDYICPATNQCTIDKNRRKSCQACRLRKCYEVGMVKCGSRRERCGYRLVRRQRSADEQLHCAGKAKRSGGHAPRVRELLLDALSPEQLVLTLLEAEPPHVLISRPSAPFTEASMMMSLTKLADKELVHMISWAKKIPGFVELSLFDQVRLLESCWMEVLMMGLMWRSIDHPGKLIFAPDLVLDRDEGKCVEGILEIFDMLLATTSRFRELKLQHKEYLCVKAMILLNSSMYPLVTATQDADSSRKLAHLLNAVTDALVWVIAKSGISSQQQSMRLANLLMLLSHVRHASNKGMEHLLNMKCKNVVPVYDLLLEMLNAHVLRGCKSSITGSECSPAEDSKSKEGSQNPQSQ

Oc1ccc2c(c1)CC[C@@H]1C[C@@](O)(C#CCl)CC[C@@]21Cc1ccccc1
inhibition [1]: 75%
inhibition [2]: 62%
Kif [3]: 4.1 nM
Kif [4]: > 1000 nM

CC#C[C@@]1(O)CC[C@@]2(Cc3ccccc3)c3ccc(O)cc3CC[C@@H]2C1
inhibition [1]: 57%
inhibition [2]: 50%

O=C1CC[C@@]2(Cc3ccccc3)c3ccc(O)cc3CC[C@@H]2C1
inhibition [1]: 54%
inhibition [2]: 45%

CC#C[C@]1(O)CCC2C3CCC4=CC(=O)CC[C@]4(Cc4ccc(C)cc4)C3=CC[C@@]21C (stereo partly specified)
inhibition [2]: 20%
Kif [3]: 12 nM
Kif [4]: > 1000 nM
